{
  "source": "patent US11344512B2",
  "about": "“Titration of tapentadol” (Grünenthal GmbH, priority 2007, dated 2022)",
  "key": {"[1]": {"tested_on": "patients with chronic low back pain or chronic pain from osteoarthritis of the knee or hip", "assay": "Example E-3: opioid withdrawal after 90 days treatment (COWS and SOWS questionnaires), phase III trial", "format": "in vivo, human (patients)", "details": "for patients reporting mild-to-moderate withdrawal symptoms (COWS assessment): 2 to 4 days after study medication ceased, after 90 days treatment", "experimental": "The symptoms of opioid withdrawal following long-term treatment (90 days) with tapentadol immediate release (IR) compared with oxycodone IR were evaluated in a randomized, double-blind, active-control, parallel group, flexible dose, multicenter phase III trial of patients with chronic low back pain of chronic pain from osteoarthritis of the knee or hip. Patients (N=849) were randomly assigned in a 4:1 ratio to a flexible dose of tapentadol IR (50 or 100 mg/dose; maximum 600 mg/day) or oxycodone IR (10 or 15 mg/dose; maximum 90 mg/day) every 4 to 6 hours. Symptoms of withdrawal following opioid discontinuation were examined using the Clinical Opioid Withdrawal Score (COWS) and the Subjective Opioid Withdrawal Score (SOWS) questionnaires. […] The mean total SOWS score, 2 to 4 days after last study drug intake, was lower for the tapentadol IR group (6.9) than the oxycodone IR group (8.7). […] In addition, 5 or more days after last study drug intake, the mean total SOWS score was 6.3 for the tapentadol IR group and 7.0 for the oxycodone IR group (no significant difference)."}, "[2]": {"tested_on": "patients with osteoarthritis of hip/knee or chronic low back pain", "assay": "Clinical studies C-1/C-2 (without titration) and E-1/E-2 (forced titration): occurrence of somnolence", "format": "in vivo, human (patients)", "experimental": "A randomized, double-blind, multiple dose, parallel-group study assessing the efficacy and safety of 3 dosages of tapentadol prolonged release (bid) (25 mg, 50 mg and 100 mg) compared to oxycodone prolonged release (bid) 20 mg and placebo over 28 days in patients with hip and/or knee-joint osteoarthritis. Subjects: 40-75 years old, male and female patients. 375 patients, randomized to placebo, standard opioid, tapentadol. Treatment Regimen: Day 1 only evening dose Day 2—Day 28 bid Day 29 only morning dose.\nA randomized, double-blind, multiple dose, parallel-group study assessing the efficacy and safety of tapentadol prolonged release 25, 50 and 100 mg compared to placebo and tramadol prolonged release 100 mg in patients with chronic low back pain.\nMale and female patients 18-75 years old with a history of low back pain of at least 6 months, requiring regular treatment on at least 60 out of last 90 days.\n430 patients, randomized to placebo, tramadol 100 mg prolonged release, 3 dosages tapentadol.\nA randomized, double-blind, parallel-group study assessing the efficacy and safety of two titration regimen of tapentadol prolonged release (25 mg, 50 mg, 100 mg and 100 mg, 150 mg, 200 mg of free base of tapentadol) given orally twice daily (bid) compared to placebo and oxycodone controlled release (10 mg, 10 mg, 20 mg) in patients with chronic pain due to osteoarthritis of the knee. Subjects: Male and female patients≥40 years old with a diagnosis of osteoarthritis of the knee Treatment Regimen: Patients started with the lowest dose of the titration phase for the first 3 days and up-titrated to the intermediate dose on day 4. Subjects were maintained at the intermediate dose for the next 11 days. After these 11 days patients started the maintenance phase and received the highest dose of each regimen for the remaining 14 days. Subjects who were unable to tolerate the highest dose after having received that dose for at least 3 days were allowed to down titrate to the intermediate dose. Down titration was permitted only once during the fixed-dose maintenance phase.\nA randomized, double-blind, parallel-group study that compares the efficacy and safety of two titration regimens of tapentadol prolonged release (25 mg-50 mg-100 mg and 100 mg-150 mg-200 mg) given orally twice daily (bid) and tramadol prolonged release (100 mg-150 mg-200 mg) p.o. bid to placebo in patients with moderate to severe chronic pain due to chronic low back pain. Subjects: Male and female patients≥18 years old with a diagnosis of low back pain of at least 3 months. Treatment Regimen:\nPatients took the first dose and continued on the lowest dose in their treatment regimen for 3 days (i.e. 6 doses). After the sixth dose, patients titrated to the intermediate dose in their treatment regimen and continued on this intermediate dose for 11 days (i.e. 22 doses). Up-titration was mandatory. Patients who were unable to tolerate study medication were removed from the study. After the twenty second dose, patients titrated to the final dose in their treatment regimen and continued on this final dose for 14 days.\nConcentration measurements were taken from comparative examples C-1 and C-2, both without dose titration. Examples E-1 and E-2 in the same indications were used to get PK/PD information under dose titration. In all studies adverse events were noted."}, "[3]": {"tested_on": "pain", "assay": "Preliminary clinical trials: pain treating effect (VAS) versus serum concentration of tapentadol", "format": "in vivo, human (individuals)", "experimental": "In one preferred embodiment dose a is below the pharmaceutically effective pain treating dose of tapentadol. The pharmaceutically effective pain treating dose of tapentadol may vary individually and can be determined by routine experimentation for a given subject. Usually, the minimum pharmaceutically effective pain treating dose will be above 50 mg twice daily (bid). Preferably, effective pain treatment is to be regarded as at least 5% decrease in pain in an individual, more preferably at least 10%, still more preferably at least 15% and most preferably at least 20% decrease in pain in an individual, taking into account that low serum concentrations of tapentadol suffice to show an effect in individuals that are relatively sensitive and higher serum concentrations of tapentadol are needed to show an effect in persons that are relatively unsensitive."}, "[4]": {"tested_on": "adverse effects", "details": "cited from earlier work"}, "[5]": {"details": "2 to 4 days after last study drug intake"}, "[6]": {"details": "5 or more days after last study drug intake"}},
  "data": [
    {"smiles": "COc1ccc2c3c1O[C@H]1C(=O)CC[C@@]4(O)[C@@H](C2)N(C)CC[C@]314", "note": "[oxycodone IR, reference compound]", "values": [
      {"measurement": "mean total SOWS score", "setting": "[1]; [5]", "result": 8.7},
      {"measurement": "patients reporting mild-to-moderate withdrawal symptoms (COWS assessment)", "setting": "[1]", "result": 29, "unit": "%"},
      {"measurement": "mean total SOWS score", "setting": "[1]; [6]", "result": 7.0}
    ]},
    {"smiles": "COc1ccc2c3c1O[C@H]1C(=O)CC[C@@]4(O)[C@@H](C2)N(C)CC[C@]314", "note": "[oxycodone, reference compound]", "values": [
      {"measurement": "effect of titration regimen of example E-1 on suppression of somnolence", "setting": "[2]; FIG. 8, oxycodone controlled release", "result": "no comparable effect on the suppression of somnolence"}
    ]},
    {"smiles": "CC[C@@H](c1cccc(O)c1)[C@@H](C)CN(C)C", "note": "[tapentadol IR]", "values": [
      {"measurement": "mean total SOWS score", "setting": "[1]; [5]", "result": 6.9},
      {"measurement": "patients reporting mild-to-moderate withdrawal symptoms (COWS assessment)", "setting": "[1]", "result": 17, "unit": "%"},
      {"measurement": "mean total SOWS score", "setting": "[1]; [6]", "result": 6.3}
    ]},
    {"smiles": "CC[C@@H](c1cccc(O)c1)[C@@H](C)CN(C)C", "note": "[tapentadol, (−)-(1R,2R)-3-(3-dimethylamino-1-ethyl-2-methyl-propyl)-phenol]", "values": [
      {"measurement": "visual analog scale (VAS) in a population mean", "setting": "[3]; at serum concentration about 5 ng/ml", "result": "approximately −2 mm"},
      {"measurement": "visual analog scale (VAS) in a population mean", "setting": "[3]; at serum concentration about 300 ng/ml", "result": "approximately −15 mm"},
      {"measurement": "concentration at which adverse events (somnolence) occurred, without titration (C-1, C-2) compared to dose titration (E-1, E-2)", "setting": "[2]; FIG. 5 and 6, prolonged release", "result": "much lower concentration"},
      {"measurement": "somnolence occurred in % of patients", "setting": "[2]; studies using forced titration, total daily dose 200 mg, pooled data", "result": 6, "unit": "%"},
      {"measurement": "somnolence occurred in % of patients", "setting": "[2]; studies using forced titration, total daily dose 400 mg, pooled data", "result": 12, "unit": "%"},
      {"measurement": "somnolence occurred in % of patients", "setting": "[2]; studies without titration, total daily dose 172 mg, pooled data from both studies", "result": 4.3, "unit": "%"}
    ]},
    {"smiles": "COc1cccc(C2(O)CCCCC2CN(C)C)c1", "note": "(stereo not drawn) [tramadol]", "values": [
      {"measurement": "frequency of dizziness, nausea and vomiting with slow titration", "setting": "[4]", "result": "reduce the frequency"},
      {"measurement": "frequency of somnolence with slow titration", "setting": "[4]", "result": "not significantly reduced"}
    ]}
  ]
}
